Measured values from BindingDB's records for doi:10.1016/S0960-894X(00)80339-X (1993).

Molecular target: Squalene monooxygenase (Sus scrofa)
Assay: Inhibitory concentration at which 50% decrease in the activity of Squalene epoxidase in pig liver microsomes

Row | IC50 [µM] | Compound
1 | > 400 | CC(C)=CCC/C(C)=C/CC/C(C)=C/CC/C=C(\C)CC/C=C(\C)CC/C=C/[N+](=O)[O-] [(1E,5E,9E,13E,17E)-5,9,14,18,22-Pentamethyl-1-nitro-tricosa-1,5,9,13,17,21-hexaene]
2 | 13 | CC(C)=CCC/C(C)=C/CC/C(C)=C/CC/C=C(\C)CC/C=C(\C)CCCN(C)O [N-Methyl-N-((4E,12E,16E,20E)-4,8,13,17,21-pentamethyl-docosa-4,8,12,16,20-pentaenyl)-hydroxylamine]
